The record followed here is PubChem BioAssay (NCI).

Among the test systems are NCI-H460 lung; MCF7 breast; HL-60(TB) leukemia; HS 578T breast; OVCAR-5 ovarian; NCI-H226 lung; OVCAR-3 ovarian; HCT-116 colon; KM12 colon; COLO 205 colon.
Common to all, as to experiment: inhibition of tumour cell growth, NCI panel, 48 h

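1) Cells in 96-well plates. 2) Compound, 48 h, 5 concentrations. 3) Linear interpolation between surrounding doses. 4) Unreached endpoint = highest concentration. Abbreviation: GI50, concentration required for 50% inhibition of growth. TGI marks complete inhibition of growth.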 Some results are limits rather than exact numbers.

Turning to `CC(C)(C)OC(=O)N1Cc2cc3ccccc3nc2C1CO` (stereo not given), the GI50 in the assay on NCI-H460 lung, with MCF7 breast, with HL-60(TB) leukemia, in the assay with HS 578T breast, in the assay with OVCAR-5 ovarian and in the assay on NCI-H226 lung was more than 100 µM throughout. Besides, the GI50 in the assay on OVCAR-3 ovarian, with HCT-116 colon, with KM12 colon and in the assay with COLO 205 colon was more than 100 µM throughout. The TGI with NCI-H460 lung, with MCF7 breast, in the assay with HL-60(TB) leukemia, in the assay with HS 578T breast, with OVCAR-5 ovarian and in the assay on NCI-H226 lung was more than 100 µM in each case. For the same molecule, the TGI with OVCAR-3 ovarian, with HCT-116 colon, in the assay with KM12 colon and with COLO 205 colon was more than 100 µM in each case.
Take `CC1(C)CN(CCNc2nccc(-c3c(-c4cccc(O)c4)nc4sccn34)n2)S(=O)(=O)N1`: the GI50 in the assay on NCI-H460 lung is 7.07 µM; with MCF7 breast it was 9.66 µM; in the assay on HL-60(TB) leukemia it was 10.2 µM; with HS 578T breast, 4.72 µM; with OVCAR-5 ovarian it was more than 33.2 µM; in the assay with NCI-H226 lung, 10.4 µM. The GI50 was 12.2 µM in the assay with OVCAR-3 ovarian, 5.05 µM in the assay with HCT-116 colon, 11.9 µM in the assay with KM12 colon and 0.448 µM in the assay with COLO 205 colon. The TGI with NCI-H460 lung is more than 33.2 µM; in the assay on MCF7 breast it was more than 33.2 µM; in the assay with HL-60(TB) leukemia it was 30.2 µM; with HS 578T breast, 25 µM; with OVCAR-5 ovarian, more than 33.2 µM; in the assay on NCI-H226 lung, 32.4 µM. Besides, the TGI with OVCAR-3 ovarian was more than 33.2 µM; in the assay with HCT-116 colon it was more than 33.2 µM; in the assay on KM12 colon it was more than 33.2 µM; in the assay on COLO 205 colon, 7.25 µM.
Consider `Cc1ccc2c(c1)C(O)(c1ccccc1)CCS2` (stereo not given), for which the TGI is more than 100 µM with NCI-H460 lung; more than 100 µM with MCF7 breast; 89.6 µM in the assay on HL-60(TB) leukemia; more than 100 µM with HS 578T breast; 80.6 µM with OVCAR-5 ovarian; 82.4 µM in the assay with NCI-H226 lung. The TGI is 46.9 µM in the assay with OVCAR-3 ovarian, 42.5 µM in the assay with HCT-116 colon, 54.9 µM in the assay with KM12 colon and more than 100 µM in the assay on COLO 205 colon.
`Cc1cn(C2CC(O)C(COC(N)=O)O2)c(=O)[nH]c1=O` (stereo not given): the TGI with NCI-H460 lung, in the assay with MCF7 breast, in the assay with HL-60(TB) leukemia, with HS 578T breast, in the assay with OVCAR-5 ovarian and in the assay on NCI-H226 lung was more than 100 µM throughout. The TGI in the assay with OVCAR-3 ovarian, in the assay with HCT-116 colon, in the assay on KM12 colon and in the assay with COLO 205 colon was more than 100 µM in each case.
Consider `O=C1c2ccccc2C(=O)c2sc(Nc3ccc([N+](=O)[O-])cc3)nc21`, for which the TGI in the assay with NCI-H460 lung was determined as 34.4 µM; in the assay with MCF7 breast it was 31 µM; in the assay on HL-60(TB) leukemia it was 2.52 µM; in the assay with HS 578T breast it was 22.2 µM; in the assay with OVCAR-5 ovarian it was 29.8 µM; in the assay on NCI-H226 lung, 35.9 µM. Besides, the TGI with OVCAR-3 ovarian is 6.82 µM; with HCT-116 colon it was 15.2 µM; with KM12 colon, 25.8 µM; in the assay on COLO 205 colon, 19 µM.
As for `Nc1no[n+]([O-])c1-c1nnc2c(n1)-c1ccccc1C2=O`, the GI50 was 3.38 µM with NCI-H460 lung; 1.55 µM in the assay with MCF7 breast; 2.13 µM in the assay with HL-60(TB) leukemia; 5.58 µM with HS 578T breast; 1.88 µM in the assay on OVCAR-5 ovarian; 16.1 µM in the assay with NCI-H226 lung. In addition, the GI50 in the assay on OVCAR-3 ovarian was 0.569 µM; in the assay on HCT-116 colon, 1.38 µM; with KM12 colon it was 3.53 µM; in the assay with COLO 205 colon, 1.93 µM. In addition, the TGI is 11.4 µM in the assay on NCI-H460 lung; 3.94 µM with MCF7 breast; 5.54 µM with HL-60(TB) leukemia; 65 µM with HS 578T breast; 3.77 µM with OVCAR-5 ovarian; 37.7 µM in the assay on NCI-H226 lung. Besides, the TGI in the assay with OVCAR-3 ovarian was found to be 3.83 µM; with HCT-116 colon, 3.62 µM; in the assay with KM12 colon, 15.3 µM; with COLO 205 colon, 4.35 µM.
